Results as given in patent US10407414B2, “Mannose derivatives for treating bacterial infections” (priority 2015, dated 2019).

Tested on: bacterial strain LF82 binding to the glycoprotein BSA-(Mannose)3 (FimH antagonists)
Assay: Bacterial Binding Assay (BBA)
Assay type: cell-based, Escherichia coli
Settings: read-out: Bacterial Binding Assay IC50 ± SEM
Excerpt: The purpose of the Bacterial Binding Assay (BBA) is to determine the inhibition activity of selective FimH antagonists on the bacterial strain LF82 binding to the glycoprotein BSA-(Mannose)3.
Below is a list of the Materials used to run the BBA are described below. • 1. LB broth: Supplier: Gibco, #10855 • 2. D-PBS: Supplier: Wisent, #311-425-CL • 3. LB agar plates • 4. 96-well black plate (high binding): Supplier: Costar, #3925 • 5. TopSeal™-A adhesive sealing films; Supplier PerkinElmer, #6005185 • 6. Carbonate-bicarbonate buffer pH 9.6 tablets, Supplier: Medicago, #09-8922-24 • 7. Water, Supplier: Gibco, #15230-162 • 8. Bovine serum albumin (BSA): Supplier: Sigma, #A-7888 • 9. (Man)3-BSA (α1-3, α1-6 Mannotriose-BSA, 1 mg), V-Labs, #NGP1336, lot# HGDX37-169-1 • 10. Tween 20: Supplier: Sigma, #P9416 • 11. Bright-Glo Luciferase Assay System: Supplier: Promega, #E2610 • 12. LF82/Luciferase strain: Invasive ability of an Escherichia coli strain isolated from the ileal mucosa of a patient with Crohn's disease. Boudeau J, Glasser A L, Masseret E, Joly B, Darfeuille-Michaud A, Infect Immun. 1999, 67(9), 4499-509
Solutions and buffers used to run the BBA are described below. • 1. 0.04M carbonate-bicarbonate buffer (coating buffer) • 2. 40 μg/mL BSA-(Man)3: Dissolve 1 mg of (Man)3-BSA in 25 mL of water. • 3. 4000 μg/mL BSA • 4. 40 μg/mL BSA • 5. 1 μg/mL BSA-(Man)3: 150 μL of 40 μg/mL BSA-(Man)3+5.85 mL of 40 μg/mL BSA • 6. 0.5 μg/mL BSA-(Man)3 in 0.02M carbonate-bicarbonate buffer. • 7. 20 μg/mL BSA in 0.02M carbonate-bicarbonate buffer • 8. Blocking buffer (2% BSA/DPBS): 1 g of BSA in 50 mL D-PBS • 9. 2× binding buffer (0.2% BSA/D-PBS): 5 mL of blocking buffer+45 mL D-PBS. • 10. Washing buffer (D-PBS/0.01% Tween 20): 10 μL of Tween 20 in 100 mL D-PBS. • 11. 1× Bright-Glo Luciferase substrate: Dilute 1:1 the Bright-Glo Luciferase Assay System with D-PBS
The experimental protocol used in this example to run the BBA is described below.
Overnight culture of LF82/Luciferase strain: Into two Falcon 50 mL tubes, add 20 mL of LB+20 μL of 50 mg/mL Kanamycin and inoculate with a loop from glycerol stock of the LF82/Luciferase strain. Incubate overnight at 37° C. with no shaking.
Glycoprotein coating of 96-well plates: Add 100 μL/well of 0.5-2 μg/mL BSA-(Man)3. 20 μg/mL BSA is used as the control background. Seal plate using an adhesive sealing film and incubate overnight at room temperature. Wash the 96-well plate three times with 150 μL/well of D-PBS, add 170 μL/well of blocking solution and incubate 45 min (minimum) at room temperature.
Preparation of bacterial suspension: Mix the two cultures tubes (40 mL) and perform a 1:10 dilution in LB (900 μl LB+100 μl culture. Measure optical density (OD) of the bacterial cultures. OD1 ˜5×10^8 cells/mL. Centrifuge LF82 culture for 20 min at 3500 rpm at room temperature. Re-suspend bacterial pellet in D-PBS and centrifuge again for 20 min at 3500 rpm. Re-suspend bacterial pellet in D-PBS to obtain a bacterial concentration of 2×10^9 bacteria/mL. Dilute 1/10 in D-PBS to obtain a final bacterial concentration of 2×10^8 bacteria/mL (=107 bacteria/50 μL). Perform 1/10 serial dilutions in LB of each bacterial suspension, plate 10 μL of dilutions on LB agar plates (final dilutions of 10^−7) and incubate overnight at 37° C. and count CFUs to determine the actual bacteria density in the assay.
Bacterial binding assay: Add 147 μL 2× binding buffer to compound plate (containing 3 μL of compound). After blocking step is performed (at least 45 min), wash plates three times with 200 μL/well of D-PBS. With a 100 μL multichannel manual pipettor, add 50 μL/well of compound diluted in 2× binding buffer. With a 100 μL multichannel manual pipettor, add 50 μL/well of bacterial suspension. Agitate at slow speed for 1 min and incubate 40-75 min at room temperature. Wash 5 times with 150 μL/well of washing buffer and then once with D-PBS. Add 100 μL/well of 1× Bright-Glo Luciferase substrate. […]

Row | SMILES | IC50 [nM]
1 | OC[C@H]1O[C@H](C#Cc2cc(C#Cc3ccccc3)cc3cn[nH]c23)[C@@H](O)[C@@H](O)[C@@H]1O [Compound 45, (2R,3S,4R,5S,6R)-2-(hydroxymethyl)-6-[2-[5-(2-phenylethynyl)-1H-indazol-7-yl]ethynyl]tetrahydropyran-3,4,5-triol] | 15 ± 3
2 | OC[C@H]1O[C@H](C#Cc2cc(C#Cc3cccnc3)cc3cn[nH]c23)[C@@H](O)[C@@H](O)[C@@H]1O [Compound 46, (2R,3S,4R,5S,6R)-2-(hydroxymethyl)-6-[2-[5-[2-(3-pyridyl)ethynyl]-1H-indazol-7-yl]ethynyl]tetrahydropyran-3,4,5-triol] | 3 ± 1
3 | OC[C@H]1O[C@H](C#Cc2cc(C#Cc3cccc(O)c3)cc3cn[nH]c23)[C@@H](O)[C@@H](O)[C@@H]1O [Compound 47, (2R,3S,4R,5S,6R)-2-(hydroxymethyl)-6-[2-[5-[2-(3-hydroxyphenyl)ethynyl]-1H-indazol-7-yl]ethynyl]tetrahydropyran-3,4,5-triol] | 12 ± 6
4 | OCC#Cc1cc(C#C[C@H]2O[C@H](CO)[C@@H](O)[C@H](O)[C@@H]2O)c2[nH]ncc2c1 [Compound 48, (2R,3S,4R,5S,6R)-2-(hydroxymethyl)-6-[2-[5-(3-hydroxyprop-1-ynyl)-1H-indazol-7-yl]ethynyl]tetrahydropyran-3,4,5-triol] | 9 ± 0.7
5 | O=S1(=O)CCN(CC#Cc2cc(C#C[C@H]3O[C@H](CO)[C@@H](O)[C@H](O)[C@@H]3O)c3[nH]ncc3c2)CC1 [Compound 49, (2R,3S,4R,5S,6R)-2-[2-[5-[3-(1,1-dioxo-1,4-thiazinan-4-yl)prop-1-ynyl]-1H-indazol-7-yl]ethynyl]-6-(hydroxymethyl)tetrahydropyran-3,4,5-triol] | 26 ± 0.5
6 | NC1(C#Cc2cc(C#C[C@H]3O[C@H](CO)[C@@H](O)[C@H](O)[C@@H]3O)c3[nH]ncc3c2)CCCCC1 [Compound 50] | 9 ± 1
7 | CN(CC#Cc1cc(C#C[C@H]2O[C@H](CO)[C@@H](O)[C@H](O)[C@@H]2O)c2[nH]ncc2c1)Cc1ccccc1 [Compound 51, (2R,3S,4R,5S,6R)-2-[2-[5-[3-[benzyl(methyl)amino]prop-1-ynyl]-1H-indazol-7-yl]ethynyl]-6-(hydroxymethyl)tetrahydropyran-3,4,5-triol] | 3 ± 0.4
8 | CC(C)CNCC#Cc1cc(C#C[C@H]2O[C@H](CO)[C@@H](O)[C@H](O)[C@@H]2O)c2[nH]ncc2c1 [Compound 52, (2R,3S,4R,5S,6R)-2-(hydroxymethyl)-6-[2-[5-[3-(isobutylamino)prop-1-ynyl]-1H-indazol-7-yl]ethynyl]tetrahydropyran-3,4,5-triol] | 22 ± 10
9 | CCN(CC)CC#Cc1cc(C#C[C@H]2O[C@H](CO)[C@@H](O)[C@H](O)[C@@H]2O)c2[nH]ncc2c1 [Compound 53, (2R,3S,4R,5S,6R)-2-[2-[5-[3-(diethylamino)prop-1-ynyl]-1H-indazol-7-yl]ethynyl]-6-(hydroxymethyl)tetrahydropyran-3,4,5-triol] | 4 ± 0.5
10 | CCOc1cc(C)c(-c2cc(C#C[C@H]3O[C@H](CO)[C@@H](O)[C@H](O)[C@@H]3O)c3[nH]ncc3c2)cn1 [Compound 54, (2R,3S,4R,5S,6R)-2-[2-[5-(6-ethoxy-4-methyl-3-pyridyl)-1H-indazol-7-yl]ethynyl]-6-(hydroxymethyl)tetrahydropyran-3,4,5-triol] | 0.4 ± 0.1
11 | Cc1cc(OCc2ccccc2)ncc1-c1cc(C#C[C@H]2O[C@H](CO)[C@@H](O)[C@H](O)[C@@H]2O)c2[nH]ncc2c1 [Compound 55, (2R,3S,4R,5S,6R)-2-[2-[5-(6-benzyloxy-4-methyl-3-pyridyl)-1H-indazol-7-yl]ethynyl]-6-(hydroxymethyl)tetrahydropyran-3,4,5-triol] | 2 ± 0.05
12 | COC(=O)c1cc(C#C[C@H]2O[C@H](CO)[C@@H](O)[C@H](O)[C@@H]2O)c2[nH]ncc2c1 [Compound 57, Methyl 7-[2-[(2R,3S,4R,5S,6R)-3,4,5-trihydroxy-6-(hydroxymethyl)tetrahydropyran-2-yl]ethynyl]-1H-indazole-5-carboxylate] | 2 ± 0.6
13 | O=C(O)c1cc(C#C[C@H]2O[C@H](CO)[C@@H](O)[C@H](O)[C@@H]2O)c2[nH]ncc2c1 [Compound 58, 7-[2-[(2R,3S,4R,5S,6R)-3,4,5-trihydroxy-6-(hydroxymethyl)tetrahydropyran-2-yl]ethynyl]-1H-indazole-5-carboxylic acid] | 74 ± 15
14 | CN(C)C(=O)c1cc(C#C[C@H]2O[C@H](CO)[C@@H](O)[C@H](O)[C@@H]2O)c2[nH]ncc2c1 [Compound 59, N,N-dimethyl-7-[2-[(2R,3S,4R,5S,6R)-3,4,5-trihydroxy-6-(hydroxymethyl)tetrahydropyran-2-yl]ethynyl]-1H-indazole-5-carboxamide] | 0.4 ± 0.2
15 | CN(C(=O)c1cc(C#C[C@H]2O[C@H](CO)[C@@H](O)[C@H](O)[C@@H]2O)c2[nH]ncc2c1)C1CCCCC1 [Compound 60, N-cyclohexyl-N-methyl-7-[2-[(2R,3S,4R,5S,6R)-3,4,5-trihydroxy-6-(hydroxymethyl)tetrahydropyran-2-yl]ethynyl]-1H-indazole-5-carboxamide] | 3 ± 2
16 | O=C(c1cc(C#C[C@H]2O[C@H](CO)[C@@H](O)[C@H](O)[C@@H]2O)c2[nH]ncc2c1)N1CCOCC1 [Compound 61, morpholino-[7-[2-[(2R,3S,4R,5S,6R)-3,4,5-trihydroxy-6-(hydroxymethyl)tetrahydropyran-2-yl]ethynyl]-1H-indazol-5-yl]methanone] | 0.6 ± 0.1
17 | CNC(=O)c1cc(C#C[C@H]2O[C@H](CO)[C@@H](O)[C@H](O)[C@@H]2O)c2[nH]ncc2c1 [Compound 62, N-methyl-7-[2-[(2R,3S,4R,5S,6R)-3,4,5-trihydroxy-6-(hydroxymethyl)tetrahydropyran-2-yl]ethynyl]-1H-indazole-5-carboxamide] | 34 ± 20
18 | O=C(NC1CCCCC1)c1cc(C#C[C@H]2O[C@H](CO)[C@@H](O)[C@H](O)[C@@H]2O)c2[nH]ncc2c1 [Compound 63, N-cyclohexyl-7-[2-[(2R,3S,4R,5S,6R)-3,4,5-trihydroxy-6-(hydroxymethyl)tetrahydropyran-2-yl]ethynyl]-1H-indazole-5-carboxamide] | 26 ± 1
19 | O=C(NC1CCCC1)c1cc(C#C[C@H]2O[C@H](CO)[C@@H](O)[C@H](O)[C@@H]2O)c2[nH]ncc2c1 [Compound 64, N-cyclopentyl-7-[2-[(2R,3S,4R,5S,6R)-3,4,5-trihydroxy-6-(hydroxymethyl)tetrahydropyran-2-yl]ethynyl]-1H-indazole-5-carboxamide] | 50 ± 7
20 | CCCN(C)C(=O)c1cc(C#C[C@H]2O[C@H](CO)[C@@H](O)[C@H](O)[C@@H]2O)c2[nH]ncc2c1 [Compound 65, N-methyl-N-propyl-7-[2-[(2R,3S,4R,5S,6R)-3,4,5-trihydroxy-6-(hydroxymethyl)tetrahydropyran-2-yl]ethynyl]-1H-indazole-5-carboxamide] | 0.8 ± 0.1
